Test results: patent US6500811B2, “Sulfonylaminophosphinic and sulfonylaminophosphonic acid derivatives, methods for their preparation and use” (Aventis Pharma Deutschland GmbH, priority 1998, dated 2002)

Assays:
Type in all cases: biochemical
[1] = system: aggrecanase; assay: Aggrecanase activity from rat chondrosarcoma cell supernatant, rAgg1mut cleavage detected by BC-3 Western blot; conditions: RCS cell culture supernatant, 1 h preincubation, 4 h incubation with rAgg1mut
Procedure: Preparation and determination of the enzymatic activity of the catalytic domain of aggrecanase using rat chondrosarcoma cells:
For the generation of the as yet not identified “aggrecanase” activity, rat chondrosarcoma cells (RCS) were used. Lark et al.; 270 J. BIOL. CHEM. 2550 (1995). These cells were inoculated into 96-well cell culture plates precoated with poly-L-lysine (80,000 cells/well). After stimulation of the RCS cells with retinoic acid (0.67 μM) and an incubation time of 47 hours (h) at 37° C. and 5% CO2, these cells generate the “aggrecanase” activity. The test substance compound 1 was then preincubated for 1 h in the “aggrecanase”-containing cell culture supernatant before 5 μg of eucaryotic rAgg1mut (Buttner et al., 333 BIOCHEM. J. 159 (1998); Hughes et al., 272 J. BIOL. CHEM. 20269 (1997)) were added for the detection of the “aggrecanase” cleavage activity in the cell culture supernatant of the RCS cells. After an incubation time of 4 h, the cell culture supernatant was removed and the cleavage products of the rAgg1mut fusion proteins generated by the “aggrecanase” activity were detected by means of SDS-polyacrylamide gel electrophoresis and Western Blot analyses with the monoclonal antibody BC-3. Hughes et al., 305 BIOCHEM. J. 799 (1995). […] The less cleaved rAgg1mut was detected, the more efficacious was the tested compound of the formula I.
The IC50 values listed in Table 3 are determined as those inhibitor concentrations which in each case led to a 50% inhibition of the enzyme aggrecanase.

[2] = biological target: T1, neutrophil collagenase (MMP-8) (Homo sapiens, UniProt P22894); assay: Enzymatic activity of the catalytic domain of neutrophil collagenase, fluorogenic substrate; conditions: pH 6.5, 15 min preincubation
T1 construct: catalytic domain of human stromelysin and of neutrophil collagenase; made in house
T1 sequence (P22894 100-262 limits assumed): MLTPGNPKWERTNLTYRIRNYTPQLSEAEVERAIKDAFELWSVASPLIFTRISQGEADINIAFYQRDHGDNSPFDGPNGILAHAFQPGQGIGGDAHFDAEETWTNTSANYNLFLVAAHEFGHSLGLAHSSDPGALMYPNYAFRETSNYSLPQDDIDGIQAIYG
Procedure: (§1) Preparation and determination of the enzymatic activity of the catalytic domain of human stromelysin and of neutrophil collagenase.
(§2) The two enzymes—stromelysin (“MMP-3”) and neutrophil collagenase (“MMP-8”)—were prepared according to Ye et al., 31 BIOCHEMISTRY 11231 (1992). For the measurement of the enzyme activity or of the enzyme inhibitor action, 70 μl of buffer solution and 10 μl of enzyme solution are incubated for 15 minutes with 10 μl of a 10% strength (v/v) aqueous dimethyl sulfoxide solution which optionally contains the enzyme inhibitor. After addition of 10 μl of a 10% strength (v/v) aqueous dimethyl sulfoxide solution which contains 1 mmol/l of the substrate, the enzyme reaction is monitored by fluorescence spectroscopy (328 nm (ex)/393 nm(em)).
(§3) The enzyme activity is shown as extinction increase/minute. The IC50 values listed in Table 2 are determined as those inhibitor concentrations which in each case lead to a 50% inhibition of the enzyme.
(§4) The buffer solution contains 0.05% Brij (Sigma, Deisenhofen, Germany) and 0.1 mol/l of tris/HCl, 0.1 mol/l of NaCl, 0.01 mol/l of CaCl2 and 0.1 mol/l of piperazine-N,N′-bis[2-ethanesulfonic acid] (pH=6.5).
(§5) The enzyme solution contains 5 μg/ml of one of the enzyme domains prepared according to Ye et al. The substrate solution contains 1 mmol/l of the fluorogenic substrate (7-methoxycoumarin4-yl)acetyl-Pro-Leu-Gly-Leu-3-(2′,4′-dinitrophenyl)-L-2,3-diaminopropionyl-Ala-Arg-NH2 (Bachem, Heidelberg, Germany).

[3] = biological target: T2, stromelysin (MMP-3) (Homo sapiens, UniProt P08254); assay: Enzymatic activity of the catalytic domain of human stromelysin, fluorogenic substrate; conditions: pH 6.5, 15 min preincubation
T2 construct: enzymatic activity of the catalytic domain of human stromelysin; made in house
T2 sequence (P08254 100-272 limits assumed): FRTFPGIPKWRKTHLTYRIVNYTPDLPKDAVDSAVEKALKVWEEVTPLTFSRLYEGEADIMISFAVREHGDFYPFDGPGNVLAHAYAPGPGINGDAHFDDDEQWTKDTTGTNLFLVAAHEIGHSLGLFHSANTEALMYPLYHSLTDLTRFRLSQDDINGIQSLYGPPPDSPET
Procedure: as §1, §2, §3, §4, §5

| Compound | IC50 [1] [nM] | IC50 [2] [nM] | IC50 [3] [nM] |
| --- | --- | --- | --- |
| O=C(O)C(CP(=O)(O)O)NS(=O)(=O)c1ccc(-c2ccc(Cl)cc2)cc1 (stereo not drawn) [Example 12] | 50000 |  |  |
| COP(=O)(OC)C(O)CC(NS(=O)(=O)c1ccc(-c2ccc(Cl)cc2)cc1)c1ccc(C(F)(F)F)cc1 (stereo not drawn) [Example 10] | 2100 |  |  |
| O=C(O)C(CCC(NS(=O)(=O)c1ccc(-c2ccc(Cl)cc2)cc1)P(=O)(O)O)NS(=O)(=O)c1ccc(-c2ccc(Cl)cc2)cc1 (stereo not drawn) [Example 21] | 520 |  |  |
| CC(NS(=O)(=O)CCc1ccc(-c2ccc(Cl)cc2)cc1)P(=O)(O)O (stereo not drawn) [Example 20] | 4700 | 2 | 8 |
| CC(C)[C@@H](NS(=O)(=O)c1ccc(-c2ccc(Cl)cc2)cc1)P(=O)(O)O [Example 18] | 60000 | 1000 | 10000 |
| O=P(O)(O)CCNS(=O)(=O)c1ccc(-c2ccc(Cl)cc2)cc1 [Example 13] | 50000 |  |  |
| CC(C)[C@H](NS(=O)(=O)c1ccc(-c2ccc(N3CCCC3)cc2)cc1)P(=O)(O)O [Example 19] |  | 2 | 5 |
| O=P(O)(O)C(O)CC(NS(=O)(=O)c1ccc(-c2ccc(Cl)cc2)cc1)c1ccccc1 (stereo not drawn) [Example 8] | 15000 |  |  |
| CC(C)[C@H](NS(=O)(=O)CCc1ccc(-c2ccc(Cl)cc2)cc1)P(=O)(O)O [Example 25] |  | 2 | 3 |
| O=P(O)(O)CCNS(=O)(=O)c1ccc(-c2ccc(N3CCCC3)cc2)cc1 [Example 16] | 28000 |  |  |
| O=P(O)(O)C(NS(=O)(=O)c1ccc(-c2ccc(Cl)cc2)cc1)c1ccccc1 (racemic) [Example 3, (R,S)-[(4′-Chlorobiphenyl-4-sulfonylamino)phenylmethyl]-phosphonic acid] | 22000 | 7 | 100 |
| CCOP(=O)(O)C(O)CC(NS(=O)(=O)c1ccc(-c2ccc(Cl)cc2)cc1)c1ccccc1 (stereo not drawn) [Example 15] | 67000 |  |  |
| CCOP(=O)(O)C(NS(=O)(=O)c1ccc(-c2ccc(Cl)cc2)cc1)c1ccccc1 (racemic) [Example 2, Monoethyl (R,S)-[1-(4′-chlorobiphenyl-4-sulfonylamino)-1-phenylmethyl]phosphonate] | 79000 | 200 | 5000 |
| CC(NS(=O)(=O)c1ccc(-c2ccc(Cl)cc2)cc1)P(=O)(O)O (racemic) [Example 5, (R,S)-[1-(4′-Chlorobiphenyl-4-sulfonylamino)ethyl]phosphonic acid] | 25000 | 5 | 100 |

The remaining lines, values ahead:

| IC50 [1] [nM] | IC50 [2] [nM] | IC50 [3] [nM] | Compound |
| --- | --- | --- | --- |
| 55000 |  |  | O=C(O)C(CCP(=O)(O)O)NS(=O)(=O)c1ccc(-c2ccc(Cl)cc2)cc1 (stereo not drawn) [Example 14] |
| 2400 | 3 | 30 | CC(C)CC(NS(=O)(=O)c1ccc(-c2ccc(Cl)cc2)cc1)P(=O)(O)O (racemic) [Example 6, (R,S)-[1-(4′-chlorobiphenyl-4-sulfonylamino)-3-methylbutyl]-phosphonic acid] |
| 69000 |  |  | O=C(O)C(CP(=O)(O)O)NS(=O)(=O)c1ccc(-c2ccc(N3CCCC3)cc2)cc1 (stereo not drawn) [Example 17] |
| 8300 | 20 | 20 | CC(NS(=O)(=O)c1ccc(-c2ccc(N3CCCC3)cc2)cc1)P(=O)(O)O (stereo not drawn) [Example 22] |
| 600 | 1 | 6 | CC(C)[C@H](NS(=O)(=O)c1ccc(-c2ccc(Cl)cc2)cc1)P(=O)(O)O [Example 1, (R)-[1-(4′-Chlorobiphenyl-4-sulfonylamino)-2-methylpropyl]-phosphonic acid] |
| 12000 | 60 | 500 | O=P(O)(O)C(Cc1c[nH]c2ccccc12)NS(=O)(=O)c1ccc(-c2ccc(Cl)cc2)cc1 (racemic) [Example 4, (R,S)-[1-(4′-Chlorobiphenyl-4-sulfonylamino)-2-(1H-indol-3-yl)-ethyl]phosphonic acid] |
|  | 30 | 400 | CCCCOc1ccc(S(=O)(=O)N[C@@H](C(C)C)P(=O)(O)O)cc1 [Example 24] |
